Data: patent US20110027354A1, “ANTI-PA[…]” (priority 2008, published 2011)

Tests used:
mice [1] = assay: Locomotor activity after repeated treatment with drug alone; format: in vivo; conditions: repeated treatment i.p./day×7, selegiline or MPPE 2.5 or 5.0 mg/kg, MA 0.5 or 1.0 mg/kg
Procedure: Selegiline or […] was injected (2.5 or 5 mg/kg, i.p.) once a day for 7 consecutive days. Methamphetamine, a positive control, was also administered (0.5 or 1 mg/kg, i.p.) once a day for 7 days.
Locomotor activity measured for 30 min one day after the last MPTP administration using an automated video-tracking system (Noldus Information Technology, Wagenin, The Netherlands). Eight test boxes (40×40×30 cm high) were operated simultaneously by an IBM computer. Animals were studied individually during locomotion in each test box, where they were adapted for 5 min before starting the experiment. […] The distance traveled in cm by the animals in horizontal locomotor activity was analyzed. Data were collected and analyzed between 09:00 and 17:00 h (Kim et al., 2001).

mice [2] = assay: Conditioned place preference (CPP); format: in vivo; conditions: selegiline or MPPE 2.5 or 5.0 mg/kg i.p., MA 0.5 or 1.0 mg/kg i.p.; vs. saline
Procedure: For conditioned place preference (CPP) test, mice received an i.p. injection of saline just before entering the […] compartment. MA (0.5 or 1.0 mg/kg, i.p.), selegiline (2.5 or 5.0 mg/kg, i.p.), and MPPE (2.5 or 5.0 mg/kg, i.p.) dissolved in saline was administered immediately before the mice were placed in the white compartment. On day 1, the mice were pre-exposed to the test apparatus for 15 minutes. The guillotine style doors were raised and mice were allowed to move freely between the two compartments. On day 2, the time each mouse spent in each compartment was recorded for 15 minutes. On days 3, 5, 7, 9, 11, and 13, the mice were injected with each drug before being confined to the white compartment, the non-preferred side, for 40 minutes. On day 14, the guillotine doors were raised. The mice were initially placed in the tunnel and the time spent by the mice in the two compartments was recorded for 15 minutes. The scores were calculated from the differences in the time spent in the white compartment in the testing and pre-testing phases. Data were analyzed between 09:00 and 17:00 hours.

With `CN[C@@H](C)Cc1ccccc1` [MA, methamphetamine] the locomotor patterns (mice [1]) was “typical circling locomotor patterns”, the locomotor activities (mice [1]; vs. saline) was “significantly increased” and the “conditioned place preference (CPP)” value (mice [2]) was “significantly increased compared with saline”.
